Measured values reported in US20250073202A1, “METHODS TO TREAT RENAL DISORDERS USING CALCIUM CHANNEL INHIBITORS” (The Trustees of Indiana University, priority 2018, published 2025).

Tested on: progression of CKD induced by high-salt diet following recovery from I/R injury
Experiment: AKI-to-CKD progression: unilateral I/R, contralateral nephrectomy and high salt diet in rats (Study III)
Assay type: in vivo, rat
Text: Study III was designed to investigate SOCE on progression of CKD induced by high-salt diet following recovery from I/R injury using a model of AKI-to-CKD described previously. Rats acclimated to a standard diet (AIN 76A, Dyets, Bethlehem, PA) containing 0.4% NaCl were subjected to left unilateral I/R or sham surgery and allowed to recover for ˜5 weeks. Rats were then subjected to right unilateral nephrectomy and subsequently exposed to elevated dietary Na+ (AIN76A plus 4% NaCl) for an additional 4 weeks (FIG. 9). Sham-control rats were not subjected to renal pedicle clamping, but were subjected to unilateral nephrectomy. Simultaneous with exposure to high salt diet, rats were randomly assigned to vehicle or YM58483 treatment (1mg·kg^−1·day^−1; p.o.). At the end of all studies, rats were deeply anesthetized with 50-100 mg/kg pentobarbital (Fatal Plus, Vortech, Dearborn, MI) and kidneys harvested for analysis.
To measure creatinine, tail blood was collected in heparin containing tubes and centrifuged to collect plasma. Plasma creatinine was measured using a Pointe Scientific Analyzer and Creatinine Assay reagents using methods outlined by the manufacturer (Pointe Scientific, Canton MI). Urine was collected for 24 hours by placing rats in metabolic cages and urine volume was determined gravimetrically. Urine creatinine was measured using a colorimetric assay adopted for microplate readers. Creatinine clearance was measured using UCr*V/PCr.
At the time of tissue harvest, kidneys were bisected and one half was fixed by immersion in 10% formalin, embedded in paraffin and 5 μm sections stained with picrosirus red to assess fibrosis. For quantitative analysis, five random images of renal outer medulla were obtained using Leica DMLB (Scientific Instruments, Columbus, OH) microscope with a 20× objective. The percent area of picrosirus red stain was scored in a blinded fashion using Image J (NIH).
Total RNA was obtained from kidney using Trizol and the Zymogen RNA extraction kit and cDNA was prepared using MMLV enzyme (Invitrogen, Carlsburg, CA). Quantitative real time PCR (qPCR) using gene specific primers was performed using ABI 7500 (Applied Biosystems, Foster City, CA). mRNA values were calculated using 2^−ΔΔCt. Specific primers sequences for IL-6 (catalog #Rn01410330_m1), Kim-1 (#Rn00597703_m1) and IL17 (Rn01757168_m1) were purchased from ThermoFisher (Waltham, MA).
Freshly harvested kidneys were minced and digested in liberase (2 μg/ml. Roche, Indianapolis IN) for 15 min at 37° C. using Gentle MACs (Miltenyli, San Diego, CA). The digested tissue was filtered through a 100-μm mesh and washed with RPMI containing 10% fetal bovine serum (Invitrogen). Mononuclear cells were isolated using Percol (Sigma) density gradient centrifugation.
To evaluate protein expression of IL17 or Orai1, Orai2 or Orai3, cells were restimulated with PMA and ionomycin for 6 hours in the presence of monensin (Golgistop, 1 μg·ml, BD Biosciences) permeabilized with saponin ([…]) and stained with relevant antibody. Cells were scanned using flow cytometry (FACSCalibur, BD Biosciences, San Jose, CA) and scans were analyzed using Flowjo software (Tree Star, Ashland, OR).
Study III was designed to investigate SOCE on progression of CKD induced by high-salt diet following recovery from I/R injury using a model of AKI-to-CKD described previously. Rats acclimated to a standard dict (AIN 76A, Dyets, Bethlehem, PA) containing 0.4% NaCl were subjected left unilateral I/R or sham surgery and allowed to recover for ˜5 weeks. Rats were then subjected to right unilateral nephrectomy and subsequently exposed to elevated dietary Na+ (AIN76A plus 4% NaCl) for an additional 4 weeks (FIG. 9). Sham-control rats were not subjected to renal pedicle clamping, but were subjected to unilateral nephrectomy. Simultaneous with exposure to high salt dict, rats were randomly assigned to vehicle or YM58483 treatment (1 mg·kg−1·day−1; p.o.). […]

[1] = 1 mg/kg/day p.o. during 4 weeks high salt diet

Cc1nnsc1C(=O)Nc1ccc(-n2nc(C(F)(F)F)cc2C(F)(F)F)cc1 [YM58483/BPT2, N-[4-[3,5-Bis(trifluoromethyl)-1H-pyrazol-1-yl]phenyl]-4-methyl-1,2,3-thiadiazole-5-carboxamide]
significantly attenuated: Kidney IL6 mRNA expression [1] | expression of Kim-1 [1] | increase in B cells [1] | increase in MΦ/dendritic cells [1] | increase in kidney CD4+ cells [1] | increase in kidney CD8+ cells [1] | increased expression (re-stimulation) of IL17+ cells [1] | urinary albumin excretion [1] | creatinine clearance (reduction relative to sham) (end of study, 9 weeks post I/R) | development of interstitial fibrosis (picrosirius red, renal outer medulla)
